Structures are written as SMILES. Residue numbers refer to the chain shown, from its start. Like-named read-outs stand apart in the source and are kept apart here.

For experiment [1], the target named is T1, MCT2-embigin (Homo sapiens, UniProt O60669).
T1 construct: gene SLC16A7; fusion: embigin C-terminus joined by GGSG linker to MCT2 N-terminus, C-terminal twin-Strep tag; HEK-293F, DDM then GDN, heterodimer; in transport tests expressed as fusion in HEK-293T cells; with Embigin
T1 sequence (O60669 1-478): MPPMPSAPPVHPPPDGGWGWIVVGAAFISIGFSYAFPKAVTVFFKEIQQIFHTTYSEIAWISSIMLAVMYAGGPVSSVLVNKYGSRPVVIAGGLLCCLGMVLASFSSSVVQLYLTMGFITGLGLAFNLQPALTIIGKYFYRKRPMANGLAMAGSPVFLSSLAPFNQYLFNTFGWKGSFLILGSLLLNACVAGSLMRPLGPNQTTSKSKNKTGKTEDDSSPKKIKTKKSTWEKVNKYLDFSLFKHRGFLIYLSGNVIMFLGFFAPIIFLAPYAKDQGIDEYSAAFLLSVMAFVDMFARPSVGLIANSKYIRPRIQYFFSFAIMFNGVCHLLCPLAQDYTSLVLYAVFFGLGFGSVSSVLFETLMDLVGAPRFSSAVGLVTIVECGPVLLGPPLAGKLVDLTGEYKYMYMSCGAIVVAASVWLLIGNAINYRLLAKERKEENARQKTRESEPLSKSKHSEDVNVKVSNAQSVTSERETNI
T1 sequence (Q6PCB8 33-327 partner): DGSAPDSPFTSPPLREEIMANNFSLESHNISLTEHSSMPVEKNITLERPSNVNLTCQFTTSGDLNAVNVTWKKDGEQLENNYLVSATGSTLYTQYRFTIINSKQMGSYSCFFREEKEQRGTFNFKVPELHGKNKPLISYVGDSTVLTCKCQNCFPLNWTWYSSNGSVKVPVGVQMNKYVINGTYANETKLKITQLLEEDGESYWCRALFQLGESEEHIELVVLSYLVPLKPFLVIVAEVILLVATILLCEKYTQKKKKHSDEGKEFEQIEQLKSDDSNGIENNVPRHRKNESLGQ
Briefly: bio-layer interferometry, SSA biosensor, […] fit. It counts as binding. The following applies: read-out: affinity (KD). (In BLI a coated tip is dipped into the sample, and binding shifts an interference pattern.)

Experiment [2] deals with T2, MCT2-embigin (Homo sapiens, UniProt O60669, F262A).
T2 construct: gene SLC16A7; fusion: embigin C-terminus joined by GGSG linker to MCT2 N-terminus, C-terminal twin-Strep tag; HEK-293F, DDM then GDN, heterodimer; in transport tests expressed as fusion in HEK-293T cells; with Embigin
T2 sequence (O60669 1-478 F262A): T1 sequence (O60669 1-478) with F262A
T2 sequence (Q6PCB8 33-327 partner): T1 sequence (Q6PCB8 33-327 partner)
The experiment can be described thus: bio-layer interferometry, SSA biosensor, […] fit. It counts as binding. The following applies: pH 7.4, 25 °C.

Experiment [3] deals with T1, MCT2-embigin. Briefly: pyruvate uptake, pyronicSF fluorescence, transfected HEK-293T cells. The format is cell-based.
Experiment [4] concerns the target T3, MCT2-embigin (Homo sapiens, UniProt O60669, Y34A).
T3 construct: gene SLC16A7; fusion: embigin C-terminus joined by GGSG linker to MCT2 N-terminus, C-terminal twin-Strep tag; HEK-293F, DDM then GDN, heterodimer; in transport tests expressed as fusion in HEK-293T cells; with Embigin
T3 sequence (O60669 1-478 Y34A): T1 sequence (O60669 1-478) with Y34A
T3 sequence (Q6PCB8 33-327 partner): T1 sequence (Q6PCB8 33-327 partner)
Briefly: bio-layer interferometry, SSA biosensor, […] fit. It counts as binding. The following applies: pH 7.4, 25 °C.

The subject of a further experiment is T4, MCT1-Basigin-2.
T4 construct: gene SLC16A1; fusion MCT1-Basigin-2; expressed in HEK-293T cells with pyronicSF for transport; with Basigin
Briefly: pyruvate uptake, pyronicSF fluorescence, transfected HEK-293T cells. The format is cell-based, Homo sapiens. The following applies: 5 mM pyruvate; 30 min pre-incubation.

Experiment [5] has as its target T3, MCT2-embigin. The experiment can be described thus: bio-layer interferometry, SSA biosensor, […] fit. The format is binding.
The target in experiment [6] is T1, MCT2-embigin. The experiment can be described thus: bio-layer interferometry, SSA biosensor, […] fit.
Experiment [7] deals with T5, MCT2-embigin (Homo sapiens, UniProt O60669, F351A).
T5 construct: gene SLC16A7; fusion: embigin C-terminus joined by GGSG linker to MCT2 N-terminus, C-terminal twin-Strep tag; HEK-293F, DDM then GDN, heterodimer; in transport tests expressed as fusion in HEK-293T cells; with Embigin
T5 sequence (O60669 1-478 F351A): T1 sequence (O60669 1-478) with F351A
T5 sequence (Q6PCB8 33-327 partner): T1 sequence (Q6PCB8 33-327 partner)
The experiment can be described thus: bio-layer interferometry, SSA biosensor, […] fit. The format is binding.

Experiment [8] addresses T2, MCT2-embigin. Briefly: bio-layer interferometry, SSA biosensor, […] fit. It counts as binding.

A word on the Kd: it is the constant that tells how readily two partners part at equilibrium. Usually IC50 stands for the concentration needed to halve the response being measured. High values mean lower potency, low ones higher potency. As to `Cc1n[nH]c(C)c1Cc1sc2c(c1C(=O)N1C[C@H](O)CO1)c(=O)n(C)c(=O)n2CC(C)C` [AR-C155858], the Kd on MCT2-embigin [1] stood at 600 nM. Further, the KD result at MCT2-embigin [2] is given as “MCT2(F262A)-embigin (B)”; on MCT2-embigin [4] it was “The binding kinetics of AR-C155858 bound to MCT2(Y34A)-embigin (A)”. At MCT2-embigin [3], the IC50 was determined as 981 nM.

Regarding `Cc1[nH]nc(C(F)(F)F)c1Cc1sc2c(c1C(=O)N1C[C@](C)(O)CO1)c(=O)n(C)c(=O)n2C(C)C` [AZD3965], the IC50 in the experiment on MCT1-Basigin-2 came to 1240 nM.

As to `Cc1cc(Nc2ncnc3ccc(NC4=NC(C)(C)CO4)cc23)ccc1Oc1ccn2ncnc2c1` [Tucatinib], the Kd at MCT2-embigin [5] stood at 13800 nM; on MCT2-embigin [6], 600 nM; on MCT2-embigin [7], 211000 nM; at MCT2-embigin [8] it was 33200 nM. The figures for the IC50 at MCT2-embigin [3] and in the experiment on MCT1-Basigin-2 were 2710 nM and 2600 nM, respectively.

The values are drawn from publication PMC12894981, “Structure-guided screening identifies Tucatinib as dual inhibitor for MCT1/2” (EMBO Reports, 2025).
